In US8614240B2, “Benzoxazole derivatives having inhibitory activity against interleukin-6, preparation method thereof, and pharmaceutical composition containing the same” (EWHA University-Industry Collaboration Foundation, priority 2010, dated 2013):

Experiments:
Respective cell lines = test: Cytotoxicity assay (MTT); type: cell-based; conditions: 48 hours
Method: In testing the compounds in cell lines, if cells are killed due to a toxicity of the compounds at the treatment concentration, a significant result cannot be obtained. Therefore, the toxicity assay was conducted by treatment with the compounds as follows. Respective cell lines were maintained on 96-well cell culture plate in the medium comprising 10% FBS with 1% Penicillin G/streptomycin, and then incubated under 37° C., 5% CO2 condition. All the experiments were repeated three times. The samples were properly diluted, and then cells were treated with the diluted samples at the concentrations of 1, 3, 10, 30, 100 μg/ml. After 48 hours, 10% (v/v) 5 mg/mL 3-(4,5-dimethylthiazol-2-yl)-2,5-diphenyltetrazolium bromide (MTT; Sigma) was added to the cell culture. After 3 hours of the incubation, the medium was aspirated and washed with PBS. After adding DMSO (100 μl), the mixture was gently agitated for 5 minutes. The absorbance was measured at 570 nm by means of VERSA max microplate reader (Molecular Devices Inc.), and the average absorbance (±SE) values as obtained from three experiments were compared with t-test, a statistical significance of P<0.05. When Compounds 1 and 3 were used at the concentrations of 1, 3, 10, 30, 100 μg/ml, the survival rates of cells were 94, 76, 70, 67, 30%, respectively, by the treatment with Compound 1, and 74, 71, 65, 57, 19%, respectively, by the treatment with Compound 3. It means that at least 50% of cells survive at the concentration (for example, 30 μg/ml) of the compounds of the present invention for measuring IL-6 inhibitory activity.

C57BL/6 female mice = test: In vivo test of toxicity of the compounds (body weight, appearance)
Method: In the animal experiments, C57BL/6 female mice (control group 4 mice, test group (dose group) 4 mice) obtained from Central Lab. Animal Inc. were used. The experimental animals were acclimated by breeding them at the place established with temperature 23 ±3° C., relative humidity 50 ±10%, lighting time 12 hours (6 a.m.-6 p.m.), number of ventilation 10-20 times/hour, and illuminance 150-300 Lux, for one week. All the testers who evaluated the activity in animals worn high-pressure steam sterilized (121° C., 20 minutes) working clothes, hood, mask and gloves, and conducted the experiment. During the periods of accommodation and quarantine the experimental animals were accommodated in a polycarbonate-made shoes box-type breeding cage (260W×410L×200H mm) by 4 mice in each cage. During the periods of administration and observation, the experimental animals were accommodated in a wire breeding cage (205W×350 L×175H mm) with one mouse in each cage. During the period of experiments, the breeding cages were discriminated with attaching the labels in which the experiment numbers and the animal numbers were entered. The animals were allowed to freely ingest a radiation-sterilized (25 kGy, Picolab) solid feed for experimental animals as the feed, and tap water, which was sterilized with an autoclave, as the drinking water by means of a water bottle. […]

[1] = test system: IL-6 reactive STAT3 reporter gene; test: IL-6 reactive STAT3 reporter gene test (pSTAT3-TA-Luc6 luciferase) in HepG2 cells; type: cell-based; conditions: Homo sapiens
Method: A pSTAT3-TA-Luc6 construct, which comprises 8 more STAT3 DNA binding sequence copies as compared to pSTAT-3-TA-Luc and thus, enables to better reflect STAT3 reporter gene assay, was prepared. STAT3 DNA binding sequence was amplified using pSTAT3-TA-Luc plasmid (Clontech, Palo Alto, Calif.) as the template, and oligonucleotide ([…]. SEQ ID NO: 1 (containing Kpn I site)) and oligonucleotide ([…] GAAGCAACGTTC (containing Xho I site)) as forward primer and reverse primer, respectively, by means of a thermocycler. The amplified PCR product was cloned, separated, and then inserted into Kpn I/Xho I site of pSTAT3-TA-Luc plasmid.
Human hepatoma cell line, HepG2 cell, was incubated in MEM (Minimal Essential Medium, WelGENE Inc, Daegu, Korea) medium under water-saturated condition at 37° C., 5% CO2. To this medium was added 10% (v/v) fetal bovine serum, streptomycin (100 U/mL) and penicillin (100 U/mL). 6-Well cell culture plate was allowed to grow cells up to 80%, and then the specimen was pre-treated for one hour. Then, the medium was changed into 50 μL of serum-free medium, and the mixed solution of 0.1 μL pSTAT3-TA-Luc6 construct and 0.3 μL lipofectamin reagent was added to each well and then allowed to react for 3 hours to transfect cells with pSTAT3-TA-Luc6 construct. The medium was changed to a fresh medium, and the plate was incubated for 24 hours to transiently transfect cells. The transfected cells were serum-starved with 1% BSA/DMEM, and treated with the samples for one hour and then, after adding IL-6, incubated for 3 hours. The mixture was washed with PBS, shaken for one minute with addition of 50 μL of lysis buffer (promega luciferase assay system). After adding 30-100 μL of luciferase substrate (Promega luciferase assay system), the mixture was measured by a luminometer within 5 minutes.
Among others Compounds 1 and 3 as the materials having high inhibitory effect on IL-6 activity were used at various concentration to measure the degree of inhibitory effect, and the results thereof are as shown in FIGS. 2 and 3.

In the case of `CCc1ccc(Nc2nc3cc(NC(=O)c4ccccc4)ccc3o2)cc1` [Compound 3, N-(2-(4-ethylphenylamino)benzo[d]oxazol-5-yl)benzamide], the “Survival rate of cells” value (Respective cell lines; 1 μg/ml) is reported as 74%, the “Survival rate of cells” value (Respective cell lines; 3 μg/ml) is reported as 71% and the “Survival rate of cells” value (Respective cell lines; 10 μg/ml) is reported as 65%. The “Survival rate of cells” value (Respective cell lines; 30 μg/ml) was 57%, the “Survival rate of cells” value (Respective cell lines; 100 μg/ml) was 19% and the “Change in body weight compared to the control group” value (C57BL/6 female mice; 30 mg/kg intraperitoneally once a day, 5 days, C57BL/6 female mice (FIG. 6)) was “did not show any change in the weight”. The “Toxic symptom in appearance” value (C57BL/6 female mice; after 6 days, C57BL/6 female mice) was “did not show any toxic symptom in appearance”, the IC50 ([1]; HepG2, read-out: IC50 of IL-6 inhibitory activity (STAT3 reporter gene)) was 5.8 µM and the inhibition at 20 µg/mL ([1]; HepG2, read-out: Inhibition % of IL-6 reactive STAT3 reporter gene activity, 20 ug/ml of sample, HepG2 cells) was over 80%.
